The subject of one assay is B16F10 cell line. In words: Cell counting by hemocytometer, trypan blue exclusion, B16F10. Type of assay: cell-based. The note with it: 24 hours. The protocol:
(§1) A HaCaT cell line was cultured in the same manner as described in Example 1. The cultured HaCaT cell line was plated onto a 60 mm plate at a concentration of 5×10^4 cells/well, and cultured in a CO2 incubator (37° C., 5%) for 24 hours. The cultured cells in respective plates were treated with pachastrissamine at a concentration of 10 μg/ml, and cultured in a CO2 incubator (37° C., 5%) for 24, 36, and 48 hours, respectively. After the culturing, the cells were washed with PBS, treated with trypsin-EDTA, and completely detached from the plate. Then, a hemocytometer was used to count the cells through trypan blue exclusion.
(§2) HaCaT, B16F10 and A375 cell lines were cultured in the same manner as described in Example 1. The cultured HaCaT cell line was plated onto a 60 mm plate at a concentration of 5×10^4 cells/well, and cultured in a CO2 incubator (37° C., 5%) for 24 hours. The cultured respective cells were divided into 4 groups. […] These groups were cultured in a CO2 incubator (37° C., 5%) for 24 hours, and then the number of cells were measured in the same manner as described in Example 2-2.

The subject of assay [1] is HaCaT cell line. Briefly: TUNEL analysis of apoptosis. The note with it: 10 μg/ml, 24 hours, control: only a limited part, FIG. 2E. The format is cell-based, human. Here is the method:
A HaCaT cell line was cultured in the same manner as described in Example 1. The cultured HaCaT cell line was plated onto a 60 mm plate at a concentration of 5×10^4 cells/well, and cultured in a CO2 incubator (37° C., 5%) for 24 hours. The cultured cells were treated with pachastrissamine at a concentration of 10 μg/ml, cultured in a CO2 incubator (37° C., 5%) for 24 hours, and subjected to TUNEL analysis.
In order to carry out TUNEL analysis based on ApopTagFluorescein In Situ Apoptosis Detection Kit (Millipore), cells were cultured in a cover slip, and washed with PBS (pH 7.4). In order to completely fix cells, the cells were reacted in a PBS solution including 4% paraformaldehyde at room temperature for 30 minutes. Then, in order to make the cells permeable, the cells were washed with a PBS solution, and reacted in a PBS solution including 0.1% Triton X-100 at room temperature for 5 minutes. For cell marking, the cells were washed with PBS twice, and then diluted TUNEL reaction mixture was added to the cover slip. After incubating in a humidified chamber at 37° C. for 60 minutes, the cover slip was washed. The washed cover slip was reacted with a DAPI solution at room temperature for about 10 minutes, washed with PBS, mounted on a slide, sufficiently dried in a dark place, and analyzed by a fluorescent microscope. […]

The subject of the next assay is FoxO3a. In words: FoxO3a immunoprecipitation and ubiquitin western blotting in HEK293T. The format is cell-based. The conditions noted are these: pachastrissamine and EGF. The protocol:
Then, immunoprecipitation was carried out using FoxO3a antibody. The sample obtained from immunoprecipitation was subjected to western blotting by using ubiquitin antibody so as to carry out comparative analysis.

A further assay has as its system A375 cell line. In words: Cell counting by hemocytometer, trypan blue exclusion, A375. Type of assay: cell-based. The conditions noted are these: 24 hours. The protocol: as §1, §2
A further assay deals with ERK and FoxO3a. In words: Immunoprecipitation of ERK, binding between ERK and FoxO3a. The note with it: HaCaT; 10 μg/ml; 24 hours; anti-ERK immunoprecipitation; FIG. 4F. The format is cell-based, human. The protocol:
In the same manner, a HaCaT cell line was treated with pachastrissamine, and immunoprecipitation was used to determine the degree of binding between ERK and FoxO3a, and the degree of FoxO3a ubiquitination caused by interaction. In order to carry out immunoprecipitation, the cells were plated on a 100 mm plate, and cultured in a CO2 incubator (37° C., 5%) for 24 hours. After about 12 hours of serum starvation, the cultured cell line was treated with 10 μg/ml of pachastrissamine for 24 hours. The cell line treated with pachastrissamine and another cell line not treated with pachastrissamine were resuspended in the RIPA buffer as described above, and then put on ice for 30 minutes so that the cells could be completely lysed. The lysate was centrifuged at 14000 rpm for 30 minutes, and the supernatant was collected. A BCA protein analysis kit (Pierce, Rockford, Ill.) was used to determine the concentration of each sample, and the samples in the same amount were added with anti-ERK antibody in the same amount, and reacted at 4° C. for 2 hours. Then, each of the samples was added with 10 μl of protein G-agarose (GenDEPOT) and reacted at 4° C. for 10 hours, and then centrifuged at 3000 rpm for 1 minute, washed with RIPA buffer, and centrifuged again. Then, the precipitated protein G-agarose was collected, and electrophoresis was carried out.

In a further assay the test system is MEK. In words: Western blotting of MEK activity (caMEK or N-Ras/H-Ras over-expression) in HaCaT. Type of assay: cell-based, human. The conditions noted are these: HaCaT with caMEK or N-Ras/H-Ras over-expression; FIGS. 3E, 3F. The protocol: In the same manner, MEK(caMEK) continuously activated in the HaCaT cell line was over-expressed so as to activate ERK in a lower signaling pathway of MEK. The HaCaT cell line whose ERK was activated by MEK was treated with pachastrissamine and U0126 and PD98059 (ERK inhibitors). Then, western blotting was carried out using anti-pMEK, anti-MEK, anti-pEKR, anti-EKR, and anti-actin antibodies so as to carry out comparative analysis (see FIG. 3E).
Further, in the same manner, two DNAs of N-Ras and H-Ras, in a previous step of MEK/ERK signal transduction, were over-expressed through transfection while a HaCaT cell line was cultured. Then, after treatment with pachastrissamine and phytosphingosine, western blotting was carried out using anti-pMEK, and anti-MEK antibodies so as to carry out comparative analysis of MEK activity (see FIG. 3F).
(In western blotting, separated proteins are transferred to a membrane and probed.)

The subject of assay [2] is HaCaT cell line. Briefly: Cell counting by hemocytometer, trypan blue exclusion, HaCaT. The format is cell-based, human. Here is the method: as §1
HaCaT, B16F10 and A375 cell lines were cultured in the same manner as described in Example 1. The cultured HaCaT cell line was plated onto a 60 mm plate at a concentration of 5×10^4 cells/well, and cultured in a CO2 incubator (37° C., 5%) for 24 hours. The cultured respective cells were divided into 4 groups. One group was added with only pachastrissamine (PA) at a concentration of 10 μg/ml; another group was added with lithium chloride (apoptosis inhibiting material) (at a final concentration of 300 nM) as well as pachastrissamine at a concentration of 10 μg/ml (PA+Li); and a third group was added with only lithium chloride (Li). The last group was a negative control group (Con) and was added with nothing. These groups were cultured in a CO2 incubator (37° C., 5%) for 24 hours, and then the number of cells were measured in the same manner as described in Example 2-2.

Setting [3] is: pachastrissamine 10 μg/ml + lithium chloride 300 nM (PA+Li).

On to `CCCCCCCCCCCCCC[C@@H]1OC[C@H](N)[C@@H]1O` [pachastrissamine], for which the “number of cells compared to no treatment” value with B16F10 cell line (10 μg/ml, FIGS. 2C, 2D) is listed as “the number of cells was decreased”; with A375 cell line (10 μg/ml, FIGS. 2C, 2D) it was “the number of cells was decreased”; in the assay on HaCaT cell line [2] (10 μg/ml, 24 hours, FIGS. 2C, 2D), “the number of cells was decreased”. Also, the “number of cells with lithium chloride as well as pachastrissamine, compared to only pachastrissamine” value in the assay on B16F10 cell line (setting [3]) is given as “the number of cells was higher”; with A375 cell line (setting [3]), “the number of cells was higher”; in the assay on HaCaT cell line [2] (pachastrissamine 10 μg/ml + lithium chloride 300 nM (PA+Li), 24 hours) it was “the number of cells was higher”. Moreover, the “apoptosis (TUNEL positive) among observed cell nuclei (DAPI stained)” value in the assay on HaCaT cell line [1] was “most of observed cell nuclei showed apoptosis”. The “ubiquitination degree of FoxO3a increased by EGF” value in the assay on FoxO3a is listed as “decreased”. Further, the “degree of binding between ERK and FoxO3a” value in the assay with ERK and FoxO3a is recorded as “significantly decreased”. In the assay with MEK, the “MEK activity (upper signal of ERK)” value is “inhibition effect on MEK”. Also, the “number of cells over culturing time (cell proliferation)” value in the assay on HaCaT cell line [2] (10 μg/ml, 24, 36 and 48 hours, control group increased, FIG. 2b) is on record as “the number of cells decreased”.

The values above are taken from patent US8609718B2, “Pharmaceutical composition used in treatment of hyperproliferative skin conditions and malignant melanomas comprising pachastrissamine as active ingredient” (Catholic University Industry Academy Cooperation Foundation, priority 2009, dated 2013).
